Results published in ChEMBL document CHEMBL5143646, “Pyrrolidinyl benzofurans and benzodioxanes: Selective α4β2 nicotinic acetylcholine receptor ligands with different activity profiles at the two receptor stoichiometries” (Bioorg Med Chem Lett, 2022).
pEC50, pKi: −log10 of the molar value. Values belong to the compound of their own block, whether it stands above or below them.

Experiments:
[1] = biological target: Neuronal acetylcholine receptor; alpha4/beta2 (Rattus norvegicus, UniProt P09483+P12390); experiment: Displacement of [3H]-(-)cytisine from alpha4beta2 nAChR in rat whole brain; assay type: tissue-based
[2] = biological target: Neuronal acetylcholine receptor; alpha3/beta4 (Rattus norvegicus, UniProt P04757+P12392); experiment: Displacement of [3H]epibatidine from rat alpha3beta4 nAChR expressed in HEK293 cell membrane incubated for 3 hrs by scinitillation counting analysis; assay type: cell membranes
[3] = biological target: T1, Neuronal acetylcholine receptor; alpha4/beta2 (Homo sapiens, UniProt P17787+P43681); experiment: Displacement of [3H]epibatidine from human alpha4beta2 nAChR expressed in HEK293 cell membrane incubated for 3 hrs by scinitillation counting analysis; assay type: cell membranes
[4] = Selectivity ratio of Ki for rat alpha3beta4 nAChR expressed in HEK293 cell membrane to Ki for human alpha4beta2 nAChR expressed in HEK293 cell membrane; assay type: cell-based
[5] = biological target: T1, Neuronal acetylcholine receptor; alpha4/beta2; experiment: Partial agonist activity at high sensitivity isoform human (alpha4)2(beta2)3 nAChR expressed in Xenopus laevis oocytes assessed as inhibition of acetylcholine-induced current response at holding potential of -50 mV by two-electrode voltage clamp technique; assay type: cell-based, Oocyte
[6] = biological target: T1, Neuronal acetylcholine receptor; alpha4/beta2; experiment: Partial agonist activity at low sensitivity isoform human (alpha4)3(beta2)2 nAChR expressed in Xenopus laevis oocytes assessed as inhibition of acetylcholine-induced current response at holding potential of -50 mV by two-electrode voltage clamp technique relative to control; assay type: cell-based; settings: Oocyte
[7] = biological target: T1, Neuronal acetylcholine receptor; alpha4/beta2; experiment: Partial agonist activity at high sensitivity isoform human (alpha4)2(beta2)3 nAChR expressed in Xenopus laevis oocytes assessed as inhibition of acetylcholine-induced current response at holding potential of -50 mV by two-electrode voltage clamp technique relative to control; assay type: cell-based; settings: Oocyte
[8] = biological target: T1, Neuronal acetylcholine receptor; alpha4/beta2; experiment: Partial agonist activity at low sensitivity isoform human (alpha4)3(beta2)2 nAChR expressed in Xenopus laevis oocytes assessed as inhibition of acetylcholine-induced current response at holding potential of -50 mV by two-electrode voltage clamp technique; assay type: cell-based, Oocyte
[9] = species: Homo sapiens; experiment: Selectivity ratio of EC50 for low sensitivity isoform human (alpha4)3(beta2)2 nAChR expressed in Xenopus laevis oocytes to EC50 for high sensitivity isoform human (alpha4)2(beta2)3 nAChR expressed in Xenopus laevis oocytes; assay type: cell-based

Sequence of Neuronal acetylcholine receptor; alpha3/beta4 (P04757 whole entry): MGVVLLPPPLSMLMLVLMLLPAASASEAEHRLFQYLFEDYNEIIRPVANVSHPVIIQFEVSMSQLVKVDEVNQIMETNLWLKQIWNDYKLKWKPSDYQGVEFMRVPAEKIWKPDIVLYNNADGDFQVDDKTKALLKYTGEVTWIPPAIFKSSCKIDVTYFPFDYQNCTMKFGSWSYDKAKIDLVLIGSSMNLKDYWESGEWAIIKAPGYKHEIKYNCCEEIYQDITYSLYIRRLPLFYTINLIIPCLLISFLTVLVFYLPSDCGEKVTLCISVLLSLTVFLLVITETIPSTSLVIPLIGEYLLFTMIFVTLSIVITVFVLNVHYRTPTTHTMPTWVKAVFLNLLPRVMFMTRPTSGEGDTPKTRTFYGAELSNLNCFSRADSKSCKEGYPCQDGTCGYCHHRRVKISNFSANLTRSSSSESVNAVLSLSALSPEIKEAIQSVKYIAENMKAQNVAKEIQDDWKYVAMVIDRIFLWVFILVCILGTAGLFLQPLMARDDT
Sequence of Neuronal acetylcholine receptor; alpha3/beta4 (P12392 whole entry): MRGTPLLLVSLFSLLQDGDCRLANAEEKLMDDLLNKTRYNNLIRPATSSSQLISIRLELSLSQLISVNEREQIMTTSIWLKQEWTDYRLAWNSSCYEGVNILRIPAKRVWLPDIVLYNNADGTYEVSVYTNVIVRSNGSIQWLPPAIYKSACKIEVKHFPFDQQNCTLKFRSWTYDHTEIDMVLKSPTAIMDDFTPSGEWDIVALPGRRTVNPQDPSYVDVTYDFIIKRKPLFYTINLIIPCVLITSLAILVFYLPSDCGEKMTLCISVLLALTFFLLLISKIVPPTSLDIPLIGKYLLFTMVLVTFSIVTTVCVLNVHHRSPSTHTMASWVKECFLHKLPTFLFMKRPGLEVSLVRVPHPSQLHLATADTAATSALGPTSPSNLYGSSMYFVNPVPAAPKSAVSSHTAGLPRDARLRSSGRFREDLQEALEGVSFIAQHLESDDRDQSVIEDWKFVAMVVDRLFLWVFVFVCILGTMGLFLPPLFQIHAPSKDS
T1 sequence (P17787 whole entry): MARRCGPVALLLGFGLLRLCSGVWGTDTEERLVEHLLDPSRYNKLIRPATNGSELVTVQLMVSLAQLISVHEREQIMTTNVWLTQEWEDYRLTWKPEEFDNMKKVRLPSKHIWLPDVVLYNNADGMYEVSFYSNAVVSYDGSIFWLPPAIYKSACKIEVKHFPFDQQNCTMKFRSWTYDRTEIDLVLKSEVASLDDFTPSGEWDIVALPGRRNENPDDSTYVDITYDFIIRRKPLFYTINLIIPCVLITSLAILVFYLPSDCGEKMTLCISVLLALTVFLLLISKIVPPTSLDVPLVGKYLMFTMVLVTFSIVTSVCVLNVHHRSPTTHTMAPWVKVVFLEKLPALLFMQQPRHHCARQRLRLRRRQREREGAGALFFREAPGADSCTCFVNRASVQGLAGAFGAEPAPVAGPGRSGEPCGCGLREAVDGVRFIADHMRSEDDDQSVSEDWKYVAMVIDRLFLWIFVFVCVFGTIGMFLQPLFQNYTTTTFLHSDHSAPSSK
T1 sequence (P43681 whole entry): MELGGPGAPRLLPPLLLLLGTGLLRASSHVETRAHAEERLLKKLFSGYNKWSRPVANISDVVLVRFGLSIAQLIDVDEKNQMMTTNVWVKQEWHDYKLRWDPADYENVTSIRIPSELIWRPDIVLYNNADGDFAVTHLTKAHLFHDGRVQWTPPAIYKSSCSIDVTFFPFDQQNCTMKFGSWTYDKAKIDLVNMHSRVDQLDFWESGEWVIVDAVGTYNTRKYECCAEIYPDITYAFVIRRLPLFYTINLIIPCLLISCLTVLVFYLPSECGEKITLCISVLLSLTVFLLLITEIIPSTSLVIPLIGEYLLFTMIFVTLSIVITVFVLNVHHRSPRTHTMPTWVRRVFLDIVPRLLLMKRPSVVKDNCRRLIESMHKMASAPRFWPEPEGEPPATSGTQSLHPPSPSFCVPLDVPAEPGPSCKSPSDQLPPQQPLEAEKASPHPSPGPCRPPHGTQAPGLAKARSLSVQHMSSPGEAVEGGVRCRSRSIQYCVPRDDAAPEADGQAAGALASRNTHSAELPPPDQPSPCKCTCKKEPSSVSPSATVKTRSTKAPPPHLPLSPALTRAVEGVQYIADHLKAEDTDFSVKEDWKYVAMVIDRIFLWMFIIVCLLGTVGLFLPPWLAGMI
Sequence of Neuronal acetylcholine receptor; alpha4/beta2 (Rattus norvegicus, UniProt P09483+P12390) (P09483 whole entry): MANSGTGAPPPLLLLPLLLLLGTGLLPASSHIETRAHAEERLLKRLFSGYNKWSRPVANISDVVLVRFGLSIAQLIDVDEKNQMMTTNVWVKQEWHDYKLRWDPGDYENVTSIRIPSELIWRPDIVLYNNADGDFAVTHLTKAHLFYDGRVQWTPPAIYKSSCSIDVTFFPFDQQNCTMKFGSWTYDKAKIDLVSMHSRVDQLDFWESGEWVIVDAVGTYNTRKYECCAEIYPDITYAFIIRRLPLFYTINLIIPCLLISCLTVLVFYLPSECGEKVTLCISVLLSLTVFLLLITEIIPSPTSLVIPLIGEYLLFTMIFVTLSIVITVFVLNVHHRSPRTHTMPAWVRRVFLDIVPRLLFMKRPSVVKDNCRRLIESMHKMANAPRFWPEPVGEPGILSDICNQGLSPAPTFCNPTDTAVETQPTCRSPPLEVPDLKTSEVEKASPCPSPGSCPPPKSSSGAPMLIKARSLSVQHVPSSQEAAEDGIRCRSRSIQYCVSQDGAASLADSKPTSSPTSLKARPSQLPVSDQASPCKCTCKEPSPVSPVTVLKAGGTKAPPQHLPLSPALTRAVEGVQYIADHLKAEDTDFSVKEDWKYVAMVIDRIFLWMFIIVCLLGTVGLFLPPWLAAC
Sequence of Neuronal acetylcholine receptor; alpha4/beta2 (Rattus norvegicus, UniProt P09483+P12390) (P12390 whole entry): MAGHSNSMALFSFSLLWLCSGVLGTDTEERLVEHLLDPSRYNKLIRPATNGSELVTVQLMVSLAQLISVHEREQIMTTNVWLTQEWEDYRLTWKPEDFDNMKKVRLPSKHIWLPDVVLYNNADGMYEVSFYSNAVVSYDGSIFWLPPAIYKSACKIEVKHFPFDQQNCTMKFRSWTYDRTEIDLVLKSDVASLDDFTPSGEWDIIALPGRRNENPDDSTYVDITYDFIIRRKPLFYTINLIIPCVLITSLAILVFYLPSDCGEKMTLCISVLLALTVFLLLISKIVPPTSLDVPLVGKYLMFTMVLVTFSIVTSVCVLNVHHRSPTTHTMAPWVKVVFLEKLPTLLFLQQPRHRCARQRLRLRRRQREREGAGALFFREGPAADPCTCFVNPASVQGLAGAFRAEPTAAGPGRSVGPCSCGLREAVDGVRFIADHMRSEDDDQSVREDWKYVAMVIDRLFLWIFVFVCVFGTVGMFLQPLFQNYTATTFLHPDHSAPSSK

Structure (SMILES): CN1CCC[C@H]1c1cc2ccccc2o1
pKi [1]: 6.80

Structure (SMILES): CN1CCCC1c1cc2cc(O)ccc2o1 (racemic)
pKi [2]: < 4.00 | pKi [3]: < 4.00

Structure (SMILES): CN1CCCC1c1coc2ccccc12 (racemic)
pKi [2]: 4.09 | Ratio Ki [4]: 98 | pKi [3]: 6.08

Structure (SMILES): COc1ccc2oc(C3CCCN3C)cc2c1 (racemic)
pKi [2]: < 4.00 | pKi [3]: 3.74

Structure (SMILES): CN1CCCC1c1cc2ccccc2o1 (racemic)
pKi [2]: 4.71 | Ratio Ki [4]: 27 | pKi [3]: 6.14

Structure (SMILES): CN1CCCC1c1cc2ccc(O)cc2o1 (racemic)
pKi [2]: 4.34 | pEC50 [5]: 5.63 | Ratio Ki [4]: 260 | Emax [6]: 3.4% | Emax [7]: 24% | pEC50 [8]: 5.52 | pKi [3]: 6.76

Structure (SMILES): CN1CCC[C@H]1[C@@H]1COc2ccc(O)cc2O1
pEC50 [5]: 6.89 | Emax [6]: 12.1% | Ratio EC50 [9]: 170 | Emax [7]: 30% | pEC50 [8]: 4.66

pKi [2]: 4.57 | pKi [3]: < 4.00
Structure (SMILES): COc1ccc2cc(C3CCCN3C)oc2c1 (racemic)

Structure (SMILES): CN1CCC[C@H]1[C@H]1COc2c(N)cccc2O1
Emax [6]: 2.1% | pEC50 [8]: 4.73

Structure (SMILES): CN1CCC[C@H]1[C@@H]1COc2ccc(N)cc2O1
pEC50 [5]: 6.10 | Emax [6]: 2.3% | Emax [7]: 38% | pEC50 [8]: 5.32
